# Test results reported in patent US20030055046A1, “Novel pyrido cyclohexenyl phenyl carboxamides tocolytic oxytocin receptor antagonists” (Wyeth, priority 2001, published 2003).
# Where a name gives a salt, the structure may show the parent alone.
# Molecular target: T1, human oxytocin receptor (Homo sapiens, UniProt P30559)
# T1 construct: host or cells: CHO cells, stably transfected (pcDNA3.1 vector)
# T1 sequence (P30559 1-389): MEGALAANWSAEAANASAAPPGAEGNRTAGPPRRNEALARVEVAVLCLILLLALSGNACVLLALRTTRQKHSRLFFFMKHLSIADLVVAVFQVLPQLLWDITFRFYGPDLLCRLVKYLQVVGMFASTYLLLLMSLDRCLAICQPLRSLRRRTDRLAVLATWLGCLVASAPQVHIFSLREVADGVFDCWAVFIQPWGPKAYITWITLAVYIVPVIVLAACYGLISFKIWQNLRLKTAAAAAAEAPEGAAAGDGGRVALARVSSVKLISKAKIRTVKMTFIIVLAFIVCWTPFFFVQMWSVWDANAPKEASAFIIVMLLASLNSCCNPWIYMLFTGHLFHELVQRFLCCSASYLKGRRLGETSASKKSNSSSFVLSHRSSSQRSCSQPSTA
# Assay: Oxytocin binding in CHO cell membranes expressing human oxytocin receptors
# Conditions: 100 nM, [3H]oxytocin
# Source text: Oxytocin binding in Chinese Hamster Ovary cell membranes expressing human oxytocin receptors
# Chinese Hamster Ovary (CHO) cells stably transfected with the human oxytocin (cf. Tanizawa et al., U.S. Pat. No. 5,466,584 (1995) to Rohto Pharmaceutical Co. Ltd., Osaka, Japan) were obtained from M. Thibonnier, Case Western Reserve University School of Medicine, Cleveland, Ohio.
# A. Passaging and Amplification of Cells:
# CHO cells transfected with the human oxytocin receptors obtained from M. Thibonnier (pcDNA3.1 vector) are allowed to grow to confluency (approx. >90%) in T-150 flasks under sterile conditions, in a cell culture medium consisting of F-12 Nutrient Mixture (HAM) with L-glutamine (Gibco Cat.# 11765-054) containing 15 mM HEPES (Gibco Cat.# 15630-080), 1% antibiotic/antimycotic (add 5 mL 100×, Gibco Cat.# 15240-062 per 500 mL F-12), 400 μg/mL of Geneticin (add 4 mL of 50 mg/mL per 500 mL F-12) and 10% Fetal Bovine Serum (Qualified, heat inactivated, Gibco Cat.# 16140-063). The medium is removed by aspiration and the cells are washed with 10 mL of Hank's Balanced Salt solution (Gibco Cat.# 14175-095). The salt solution is removed by aspiration and the cells trypsinized with 5 mL of trypsin-EDTA (0.05% trypsin, 0.53 mM EDTA-4Na, Gibco Cat.# 25300-070) for 1 min The trypsin is removed by aspiration and the cells dislodged by tapping. Cell Culture medium (e.g. 30 mL for 1:30 split) is immediately added and mixed well to inactivate trypsin. 1 mL of detached cells is added to new culture flasks containing fresh Cell Culture medium (e.g. into 25 mL per T-150 flask), and mixed gently. The cells are incubated at 37° C. in 5% CO2. The medium is changed at 3 to 4 days interval (or as appropriate). The cells grow to confluency (approx. >75%-95%) within 7-8 days. All steps are done under sterile conditions.
# The cells are washed twice gently with Hank's Balanced Salt solution (eg, use 10 mL per T-150 flask). The excess solution is removed and the cells bathed for 15-30 min. in an enzyme-free Cell Dissociation Buffer (eg, use 8 mL Hank's Based, Gibco Cat.# 13150-016 per T-150 flask) until cells are loosened. The contents are transferred to centrifuge tubes (50 mL size) kept in ice bath. All subsequent steps are done at 4° C. The tubes are centrifuged at 300×g for 15 min (1380 rpm on SORVAL, Model RT6000D, using rotor for 50 mL tubes). The supernatant is discarded and the cells suspended in homogenizing buffer (10 mM Tris-HCl containing 0.25 M sucrose and 1 mM EDTA, pH 7.4) ensuring that the volume of the buffer is about ten times the volume of the cell pellet. The cells are pooled into a centrifuge tube (50 mL) and homogenized with a Polytron at setting 6 for 10 sec. The homogenate is transferred into a Potter-Elvjehm homogenizer and homogenized with 3 strokes. The homogenate is centrifuged at 1500×g for 10 min at 4° C. (3100 rpm using SORVAL, model RT6000D, using rotor for 50 mL tubes). The pellet is discarded. The supernatant is centrifuged at 100,000×g for 60 min. at 4° C. (Beckman L8-80M ultracentrifuge; spin at 37,500 rpm with rotor type 70 Ti for 50 mL tubes; 38,000 rpm with type 80Ti for 15 mL tubes; or 35,800 rpm with rotor type 45Ti). The supernatant is discarded and the pellet suspended in 3 to 4 mL of Tris buffer (50 mM TRIS-HCl, pH 7.4). The protein content is estimated by the Bradford or Lowry method. The volume of the membrane suspension is adjusted with the membrane buffer (50 mM Tris-HCl containing 0.1 % BSA and 0.1 mM PMSF) to give 3.0 mg/mL (or as appropriate) of protein. The membranes are aliquoted and stored at −70° C.
# C. Radioligand Binding Assay:
# In wells of a 96-well format microtiter plate, is added 90, 110 or 130 μL (to make up a final volume of 200 μL) of assay buffer containing 50 mM of Tris-HCl (pH 7.4), […], 1 mg % aprotinin, 1 mg % leupeptin, 2 mg % 1,10-phenanthroline, 10 mg % trypsin inhibitor, and 0.1 mM PMSF. […]
row,Structure (SMILES),OT % inhibition @ 100 nM
1,"Cc1cc(C(=O)N2Cc3ccc(C(=O)NCc4cccnc4)n3Cc3ccccc32)ccc1C1=CCCCC1 [Example 6, 10-[4-(1-Cyclohex-1-en-1-yl)-3-methylbenzoyl]-N-(3-pyridinylmethyl)-10,11-dihydro-5H-pyrrolo[2,1-c][1 ,4]benzodiazepine-3-carboxamide]",31%
2,"CC1=C(c2ccc(C(=O)N3Cc4ccc(C(=O)N(C)Cc5cccnc5)n4Cc4ccccc43)cc2C)CCC[C@H]1O.O=C(O)C(O)C(O)C(=O)O [Example 4, 10-[4-((3R)-3-Hydroxy-2-methyl-cyclohex-1-en-1-yl)-3-methyl-benzoyl]-10,11-dihydro-5H-pyrrolo[2,1-c][1,4]benzodiazepine-3-carboxylic acid methyl-pyridin-3-yl methyl-amide L-(+)-tartaric acid salt]",99%
3,"Cc1cc(C(=O)N2Cc3ccc(C(=O)N4CCN(c5ccccn5)CC4)n3Cc3ccccc32)ccc1C1=CCCCC1 [Example 9, {10-[4-(1-Cyclohex-1-en-1-yl)-3-methylbenzoyl]-10,11-dihydro-5H-pyrrolo[2,1-c][1,4]benzodiazepin-3-yl}[4-(2-pyridinyl)-1-piperazinyl]methanone]",37%
4,"Cc1cc(C(=O)N2Cc3ccc(C(=O)NCCc4ccccn4)n3Cc3ccccc32)ccc1C1=CCCCC1 [Example 7, 10-[4-(1-Cyclohex-1-en-1-yl)-3-methylbenzoyl]-N-[2-(2-pyridinyl)ethyl]-10,11-pyrrolo[2,1-c][1,4]benzodiazepine-3-carboxamide]",42%
5,"Cc1cc(C(=O)N2Cc3ccc(C(=O)N(C)Cc4cccnc4)n3Cc3ccccc32)ccc1C1=CCCCC1 [Example 11, 10-[4-(1-Cyclohex-1-en-1-yl)-3-methylbenzoyl]-N-methyl-N-(3-pyridinylmethyl)-10,11-dihydro-5H-pyrrolo[2,1-c][1,4]benzodiazepine-3-carboxamide]",87%
6,"CC1=C(c2ccc(C(=O)N3Cc4ccc(C(=O)N(C)Cc5cccnc5)n4Cc4ccccc43)cc2C)CCC[C@H]1O [Example 3, 10-[4-((3R)-3-Hydroxy-2-methyl-cyclohex-1-en-1-yl)-3-methyl-benzoyl]-10,11-dihydro-5H-pyrrolo[2,1-c][1,4]benzodiazepine-3-carboxylic acid methyl-pyridin-3-yl methyl-amide]",96%
7,"Cc1cc(C(=O)N2Cc3ccc(C(=O)N(C)CCc4ccccn4)n3Cc3ccccc32)ccc1C1=CCCCC1 [Example 8, 10-[4-(1-Cyclohex-1-en-1-yl)-3-methylbenzoyl]-N-methyl-N-[2-(2-pyridinyl)ethyl]-10,11-dihydro-5H-pyrrolo[2,1-c][1 ,4]benzodiazepine-3-carboxamide]",84%
8,"Cc1cc(C(=O)N2Cc3ccc(C(=O)N(C)CCc4ccncc4)n3Cc3ccccc32)ccc1C1=CCCCC1 [Example 13, 10-[4-(1-Cyclohex-1-en-1-yl)-3-methylbenzoyl]-N-methyl-N-[2-(4-pyridinyl)ethyl]-10,11-dihydro-5H-pyrrolo[2,1-c][1,4]benzodiazepine-3-carboxamide]",95%
9,"Cc1cc(C(=O)N2Cc3ccc(C(=O)NCc4ccncc4)n3Cc3ccccc32)ccc1C1=CCCCC1 [Example 10, 10-[4-(1-Cyclohex-1-en-1-yl)-3-methylbenzoyl]-N-(4-pyridinylmethyl)-10,11-dihydro-5H-pyrrolo[2,1-c][1,4]benzodiazepine-3-carboxamide]",45%
10,"Cc1cc(C(=O)N2Cc3ccc(C(=O)N4CCN(c5ccncc5)CC4)n3Cc3ccccc32)ccc1C1=CCCCC1 [Example 12, {10-[4-(1-Cyclohex-1-en-1-yl)-3-methylbenzoyl]-10,11-dihydro-5H-pyrrolo[2,1--c][1,4]benzodiazepin-3-yl}[4-(4-pyridinyl)-1-piperazinyl]methanone]",98%
11,"Cc1cc(C(=O)N2Cc3ccc(C(=O)NCc4ccccn4)n3Cc3ccccc32)ccc1C1=CCCCC1 [Example 5, 10-[4-(1-Cyclohex-1-en-1-yl)-3-methylbenzoyl]-N-(2-pyridinylmethyl)-10,11-dihydro-5H-pyrrolo[2,1-c][1,4]benzodiazepine-3-carboxamide]",34%

# Same assay, conditions: [3H]oxytocin, value in parentheses, read-out: OT IC50
row,Structure (SMILES),IC50
1,"COc1cc(C2=CCCCC2)c(Cl)cc1C(=O)N1Cc2ccc(C(=O)N(C)Cc3cccnc3)n2Cc2ccccc21 [Example 1, 10-(5-Chloro-4-cyclohex-1-en-1-yl-2-me3thoxybenzoyl)-N-methyl-N-(pyridin-3-ylmethyl)-10,11-dihydro-5H-pyrrolo [2,1-c][1,4]benzodiazepine-3-carboxamide]",4.47 nM
2,"COc1cc(C2=CCCCC2)c(Cl)cc1C(=O)N1Cc2ccc(C(=O)N(C)Cc3cccnc3)n2Cc2ccccc21 [Example 2, 10-(5-Chloro-4-cyclohex-1-en-1-yl-2-methoxybenzoyl)-N-methyl-N-(pyridin-3-ylmethyl)-10,11-dihydro-5H-pyrrolo[2,1-c][1,4]benzodiazepine-3-carboxamide L-(+)-tartaric acid salt hemihydrate]",3.17 nM
